In US12264156B2, “Compounds and pharmaceutical compositions thereof for the treatment of diseases” (GALAPAGOS NV, priority 2018, dated 2025):

Legend:
[1] = tested on: LPS-induced TNFα in monocytes; test: Monocytes assay: LPS-triggered TNFα (ELISA); assay type: cell-based, human; conditions: Homo sapiens, Monocyte, LPS 200 ng/mL, supernatant after 4 h
In short: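 Human CD14+ monocytes from buffy-coat PBMCs (magnetic bead selection) were seeded at 100 000 cells/well and pretreated with compound for 1 h at 37° C (0.2% DMSO). They were then stimulated with 200 ng/mL LPS for 4 h, and supernatant TNFα was measured by chemiluminescent sandwich ELISA as percent inhibition.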

[2] = tested on: LPS triggered IL-10 secretion in monocytes; test: Monocytes assay: LPS-triggered IL-10 (ELISA); assay type: cell-based, human; conditions: LPS 200 ng/mL, supernatant after 4 h, maximal fold change vs LPS only
In short: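 Human CD14+ monocytes, magnetically isolated from buffy-coat PBMCs, were seeded at 100 000 cells/well and preincubated with compound for 1 h at 37° C (0.2% DMSO). LPS was then added at a final 200 ng/mL for 4 h. Supernatant IL-10 was quantified by chemiluminescent sandwich ELISA against a standard curve.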

[3] = tested on: TNFα; test: Mouse LPS-induced endotoxic shock, plasma TNFα; assay type: in vivo; set-up: key: +: statistically significant inhibition of TNFα; −: no effect on the level of TNFα; conditions: p.o., plasma 90 min after LPS challenge
Protocol: (§1) Injection of lipopolysaccharide (LPS) induces a rapid release of soluble tumour necrosis factor (TNFα) into the periphery. This model was used to assess prospective blockers of TNFα release in vivo.
(§2) Lipopolysaccharide (LPS) from Escherichia Coli serotype O111:B4 was obtained from Sigma Aldrich (Cat #L2630).
(§3) BALB/cAnNCrl mice (female, 18-20 g body weight) were obtained from Charles River (Calco, Italy). Mice were kept on a 12 h light/dark cycle. Temperature was maintained at 22±2° C., food and water were provided ad libitum.
(§4) Mice were dosed once by oral (p.o.) or subcutaneous (sc) route with the tested compound in the appropriate vehicle.
(§5) At the Tmax of compound, 100 μg of LPS (in H2O) was injected intraperitoneally to mice. A control group was included which comprises administering the vehicle without an LPS challenge.
(§6) Mice were sacrificed 90 min after LPS challenge and blood was collected in heparinised tubes. Plasma was obtained by centrifugation for 15 min, 2000×g at +4° C. and frozen at −80° C. before cytokine analysis.
(§7) TNFα and IL-10 were quantified in plasma by AlphaLISA detection kits obtained from PerkinElmer (Massachusetts, USA), Cat4 AL505C and AL502C, respectively.
(§8) Statistics were performed with Prism 5.03 software (GraphPad) using an ANOVA analysis of variance with Dunnett's post-hoc test versus LPS group.
(§9) Active compounds were defined as showing a statistically significant decrease in TNFα with or without a statistically significant induction of IL-10

[4] = tested on: IL-10; test: Mouse LPS-induced endotoxic shock, plasma IL-10; assay type: in vivo; set-up: key: +: statistically significant induction of IL-10; −: no effect on the level of IL-10; conditions: p.o., plasma 90 min after LPS challenge
Protocol: as §1, §2, §3, §4, §5, §6, §7, §8, §9

EC50 ([1]; 4 h) [nM] | SMILES | IL-10 FCmax median [2] | TNFα ([3]; 3 mg/kg) | TNFα ([3]; 10 mg/kg) | IL-10 ([4]; 3 mg/kg) | IL-10 ([4]; 10 mg/kg) | EC50 [1] [nM] | TNFα ([3]; 30 mg/kg) | IL-10 ([4]; 30 mg/kg)
100 to 1000 | COc1cc(-c2cnc3cc(OC[C@@H]4COCCO4)ccn23)cc2c1C(=O)N(CC(F)(F)F)CC2 [compound 225, 6-[7-[[(2S)-1,4-dioxan-2-yl]methoxy]imidazo[1,2-a]pyridin-3-yl]-8-methoxy-2-(2,2,2-trifluoroethyl)-3,4-dihydroisoquinolin-1-one] | +++ (>4.5) | + | + | + | + |  |  | 
100 to 1000 | COc1cc(-c2cnc3cc(OC[C@H]4COCCO4)ccn23)cc2c1C(=O)N(CC(F)(F)F)CC2 [Cpd 86, 6-[7-[[(2R)-1,4-dioxan-2-yl]methoxy]imidazo[1,2-a]pyridin-3-yl]-8-methoxy-2-(2,2,2-trifluoroethyl)-3,4-dihydroisoquinolin-1-one] | +++ (>4.5) | + | + | + | + |  |  | 

Further lines, the molecule ahead of its results:

SMILES | EC50 ([1]; 4 h) [nM] | IL-10 FCmax median [2] | TNFα ([3]; 3 mg/kg) | TNFα ([3]; 10 mg/kg) | IL-10 ([4]; 3 mg/kg) | IL-10 ([4]; 10 mg/kg) | EC50 [1] [nM] | TNFα ([3]; 30 mg/kg) | IL-10 ([4]; 30 mg/kg)
COc1cc(-c2cnc3cc(OCCN(C)C)ccn23)cc(OC(F)F)c1C(=O)NC1CC1 [Cpd 6, N-cyclopropyl-2-(difluoromethoxy)-4-[7-[2-(dimethylamino)ethoxy]imidazo[1,2-a]pyridin-3-yl]-6-methoxy-benzamide] | 100 to 1000 | +++ (>4.5) | − | + | − | + |  |  | 
COc1cc(-c2cnc3cc(OCCN4CCOCC4)ccn23)cc2c1C(=O)N(CC(F)(F)F)CC2 [Cpd 88, 8-methoxy-6-[7-(2-morpholinoethoxy)imidazo [1,2-a]pyridin-3-yl]-2-(2,2,2-trifluoroethyl)-3,4-dihydroisoquinolin-1-one] |  | +++ (>4.5) | + | + | − | + | 100 to 1000 | + | +
COc1cc(-c2cnc3cc(OCCN(C)C)ccn23)cc2c1C(=O)N(CC(F)(F)F)CC2 [Cpd 18, 6-[7-[2-(dimethylamino)ethoxy]imidazo[1,2-a]pyridin-3-yl]-8-methoxy-2-(2,2,2-trifluoroethyl)-3,4-dihydroisoquinolin-1-one] |  |  | − | − | − | − |  |  | 
